Source: ChEMBL document CHEMBL4680232, “Discovery of small molecules targeting GRP78 for antiangiogenic and anticancer therapy” (Eur J Med Chem, 2020)
The source made the active and inactive calls. The rule behind the calls is not given here.

Legend:
[1] = biological target: Endoplasmic reticulum chaperone BiP (Homo sapiens) (UniProt P11021); assay: Binding affinity to human GRP78 at 1 uM measured after 30 mins by UF-ASMS analysis relative to control
[2] = system: HUVEC; assay: Antiangiogenic activity against VEGF-stimulated HUVEC assessed as reduction in cell viability at 100 uM measured after 48 hrs by MTT assay relative to control; type: functional
[3] = system: HUVEC; assay: Antiangiogenic activity against VEGF-stimulated HUVEC assessed as reduction in cell viability measured after 48 hrs by MTT assay; type: functional, cell-based; conditions: Homo sapiens
[4] = system: HUVEC; assay: Antiangiogenic activity against VEGF-stimulated HUVEC assessed as reduction in cell viability up to 100 uM measured after 48 hrs by MTT assay; type: functional, cell-based; conditions: Homo sapiens, dose microM <=100, time 48.0 hrs
[5] = system: HUVEC; assay: Antiangiogenic activity against VEGF-stimulated HUVEC assessed as reduction in cell viability at 10 uM measured after 48 hrs by MTT assay relative to control; type: functional, Homo sapiens
[6] = biological target: Endoplasmic reticulum chaperone BiP (Homo sapiens) (UniProt P11021); conditions: dose 500.0 µM
Description: Binding affinity to N-terminal His-tagged GRP78 (unknown origin) assessed as change in melting temperature at 500 uM by differential scanning fluorimetry

[7] = system: 786-0; assay: Cytotoxicity against human 786-0 cells assessed reduction in cell viability after 48 hrs by MTT assay; type: functional
[8] = system: 786-0; assay: Cytotoxicity against human 786-0 cells assessed reduction in cell viability at 100 uM after 48 hrs by MTT assay; type: functional, cell-based
[9] = system: 786-0; assay: Cytotoxicity against human 786-0 cells assessed reduction in cell viability at 10 uM after 48 hrs by MTT assay; type: functional, cell-based

Chain of Endoplasmic reticulum chaperone BiP (Homo sapiens) (P11021 whole entry): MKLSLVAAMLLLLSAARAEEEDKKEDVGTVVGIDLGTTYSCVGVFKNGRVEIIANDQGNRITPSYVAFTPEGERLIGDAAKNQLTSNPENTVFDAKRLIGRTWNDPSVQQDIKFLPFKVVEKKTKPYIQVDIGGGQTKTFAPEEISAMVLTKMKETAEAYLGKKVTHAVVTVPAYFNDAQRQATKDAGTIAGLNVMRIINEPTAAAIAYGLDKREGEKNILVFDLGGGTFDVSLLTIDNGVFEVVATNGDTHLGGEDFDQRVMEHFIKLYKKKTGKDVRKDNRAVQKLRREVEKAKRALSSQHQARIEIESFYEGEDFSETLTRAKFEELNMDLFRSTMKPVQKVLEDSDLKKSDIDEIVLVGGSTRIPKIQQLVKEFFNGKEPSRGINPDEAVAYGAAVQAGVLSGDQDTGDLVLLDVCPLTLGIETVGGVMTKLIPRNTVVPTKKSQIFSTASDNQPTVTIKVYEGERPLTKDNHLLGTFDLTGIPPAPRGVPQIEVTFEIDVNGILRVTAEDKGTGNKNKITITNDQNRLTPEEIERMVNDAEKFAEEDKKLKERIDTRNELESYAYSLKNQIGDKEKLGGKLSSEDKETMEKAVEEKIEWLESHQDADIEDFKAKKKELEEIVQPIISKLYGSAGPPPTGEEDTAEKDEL

Row | Compound | RBA [1] [%] | Activity ([2]; Homo sapiens) | CC50 ([3]; time 48 hrs) [µM] | also measured
1 | COc1ccc(/C=C/C(=O)OCCc2ccccc2)cc1 | 64 |  |  | 
2 | CCCCNC(=O)c1c(-c2ccc(COC(=O)c3ccc(O)cc3)cc2)oc2ccccc12 |  | Active | 100 | 
3 | O=c1[nH]c2ccc(OCCc3ccccc3)nc2[nH]c1=O | 536 |  |  | 
4 | O=c1[nH]c2nccc(OCCc3ccccc3)c2[nH]c1=O | 1000 |  |  | 
5 | CC(C)CNC(=O)c1c(-c2ccc(CO)cc2)oc2ccccc12 | 180 |  |  | CC50 [3]: inactive; Activity [4]: inactive
6 | Nc1ccc2[nH]c(=O)c(=O)[nH]c2c1 | 119 |  |  | 
7 | CCOS(=O)(=O)/C=C/c1ccc(OC)c(OCCc2nc(-c3ccccc3)sc2C)c1 | 129 |  |  | 
8 | O=C(O[C@@H]1Cc2c(O)cc(O)cc2O[C@@H]1c1cc(O)c(O)c(O)c1)c1cc(O)c(O)c(O)c1 | 271 |  |  | Activity [4]: inactive
9 | CC(C)CNC(=O)c1c(-c2ccc(COC(=O)Cc3ccc(O)cc3)cc2)oc2ccccc12 |  | Active | 100 | 
10 | CC(=O)Nc1ccc(OCc2ccc(-c3oc4ccccc4c3C(=O)NCC(C)C)cc2)cc1 | 61 |  | 10 | Activity [5]: 50%
11 | Cc1oc(-c2ccccc2)nc1CCOc1cccc2oc(CCC(=O)O)nc12 | 160 |  |  | 
12 | CC(C)CNC(=O)c1c(-c2ccc(COC(=O)/C=C/c3ccc(O)cc3)cc2)oc2ccccc12 |  | Active | 100 | 
13 | O=C(/C=C/c1ccc(O)c(O)c1)OCCc1ccccc1 | 98 |  |  | 
14 | COc1cc(OC)cc(C(=O)OCc2ccc(-c3oc4ccccc4c3C(=O)NCC(C)C)cc2)c1 | 143 |  | 10 | Activity [5]: 50%; ΔTm [6]: 2.65 °C; EC50 ([3]; 48 h): 1.51 µM; CC50 [7]: 10 µM
15 | CC(C)CNC(=O)c1c(-c2ccc(COC(=O)c3ccc(N(C)C)cc3)cc2)oc2ccccc12 | 54 |  | 100 | Activity ([5]; Homo sapiens): inactive; Activity [2]: 50%
16 | COc1ccc(OC)c(/C=C(\C#N)c2ccc(-c3oc4ccccc4c3C(=O)NCC(C)C)cc2)c1 |  |  | 100 | 
17 | C=CCc1ccc(O)c(-c2ccc(O)c(CC=C)c2)c1 |  | Active |  | 
18 | CC(C)CNC(=O)c1c(-c2ccc(COC(=O)c3ccccc3)cc2)oc2ccccc12 |  | Active | 100 | 
19 | CC(C)CNC(=O)c1c(-c2ccc(COC(=O)c3cc(O)cc(O)c3)cc2)oc2ccccc12 |  | Active | 100 | 
20 | COc1cc(OC)cc(C(=O)OCc2ccc(-c3nc4cccc(C(=O)NCC(C)C)c4o3)cc2)c1 |  |  |  | CC50 [3]: inactive
21 | CC(C)CNC(=O)c1c(-c2ccc(COC(=O)c3ccc(O)cc3)cc2)oc2ccccc12 |  | Active | 100 | 
22 | Nc1ncnc2c1ncn2[C@@H]1O[C@H](COP(=O)(O)OP(=O)(O)OP(=O)(O)O)[C@@H](O)[C@H]1O |  |  |  | ΔTm [6]: 4.65 °C
23 | CC(C)CNC(=O)c1c(-c2ccc(COC(=O)c3ccccc3O)cc2)oc2ccccc12 | 501 |  | 10 | Activity [5]: 50%
24 | CC(C)CNC(=O)c1cccc2nc(-c3ccc(COC(=O)Cc4ccc(O)cc4)cc3)oc12 |  | Active | 10 | CC50 [7]: 10 µM
25 | CC(C)CNC(=O)c1c(-c2ccc(COc3ccc(CO)cc3)cc2)oc2ccccc12 |  | Active | 10 | CC50 [7]: 10 µM
26 | COC(=O)c1c(-c2ccc(COC(=O)c3cc(O)cc(O)c3)cc2)oc2ccccc12 |  | Active | 10 | Activity [8]: Active; ΔTm [6]: -0.76 °C; Activity [9]: inactive
27 | O=C(/C=C/c1ccc(O)c(O)c1)OCCc1ccc(Br)cc1 | 90 |  |  | Activity ([5]; Homo sapiens): inactive; Activity [2]: 50%
